Laboratory results published in PubChem BioAssay AID858 (Vanderbilt High Throughput Screening Facility, 2007).
Calls of active or inactive are those of the source.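 How the source made its calls: active means at least two of three replicate dose series yielding a converging curve fit, whether well or thinly supported; inactive means the rest.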

biological target: D(1A) dopamine receptor (Homo sapiens) (UniProt P21728); test: concentration-dependent D1 reporter signal change – cell-based, CRE-luciferase, HEK293, dopamine EC30, D1 allosteric modulator project, dose response (AID 858);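 further: HEK 293 cells bearing human D1 receptor stimulated by dopamine at its EC30; luciferase light from a cAMP response element reporter gene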
Sequence (P21728 whole entry, looked up): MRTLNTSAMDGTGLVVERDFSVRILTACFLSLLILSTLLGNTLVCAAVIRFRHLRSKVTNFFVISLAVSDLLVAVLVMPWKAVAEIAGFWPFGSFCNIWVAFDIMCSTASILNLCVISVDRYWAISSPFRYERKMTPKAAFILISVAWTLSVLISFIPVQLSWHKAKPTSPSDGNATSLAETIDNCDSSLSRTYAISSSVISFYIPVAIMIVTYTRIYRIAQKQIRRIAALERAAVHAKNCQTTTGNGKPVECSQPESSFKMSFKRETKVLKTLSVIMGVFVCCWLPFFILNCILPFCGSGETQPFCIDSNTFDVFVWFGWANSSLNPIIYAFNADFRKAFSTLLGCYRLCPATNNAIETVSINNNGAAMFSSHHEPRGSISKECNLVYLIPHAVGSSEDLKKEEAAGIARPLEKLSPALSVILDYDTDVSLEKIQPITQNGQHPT

Structure (SMILES) | outcome | EC50 [nM]
c1csc(-c2nn3c(Cn4nnc5ccccc54)nnc3s2)c1 | inactive | –
CCc1nc2ccccc2c(C(=O)OCC(=O)NCc2ccco2)c1C | inactive | –
COc1ccc(OC)c(C2C=C(c3ccc(C)c(C)c3)Nc3nnnn32)c1 (stereo unspecified) | inactive | –
CCOC(=O)c1oc2ccc(Br)cc2c1NC(=O)CN1CCN(C)CC1 | inactive | –
NC(=O)c1c(NC(=O)CSc2nnc(-c3ccco3)n2-c2ccccc2)sc2c1CCC2 | inactive | –
CCOC(=O)c1c(C)c(C(=O)NCc2ccc3c(c2)OCO3)c(C)n1C | inactive | –
c1ccc(COc2nsnc2N2CCOCC2)cc1 | inactive | –
O=C(CCc1ccc(CCC(=O)c2cccs2)s1)c1cccs1 | inactive | –
CCN1C(=O)c2cccc3c(S(=O)(=O)Nc4ccccn4)ccc1c23 | inactive | –
Cn1c2c(c3ccccc31)CC/C2=N\O | inactive | –
CCCSc1nsc(SCCC)c1C(N)=O | inactive | –
CCc1nc2sc3ccccc3c(=O)c2c(=O)n1Cc1ccco1 | inactive | –
COCCCNc1c2c3c(cccc3[nH]c1=O)C(=O)c1ccccc1-2 | inactive | –
c1ccc(-c2nc3nonc3nc2-c2ccccc2)cc1 | inactive | –
Brc1ccc(-c2nn3c(Cc4ccccc4)nnc3s2)o1 | inactive | –
Cc1cc(C)n(-c2nc3ccccc3nc2Nc2ccc(CC(=O)O)cc2)n1 | inactive | –
CCOC(=O)c1c(NC(=O)c2cccs2)sc(C)c1CC | inactive | –
CN1CCN(CC(O)COCc2ccc3c(c2)OCO3)CC1 (stereo unspecified) | inactive | –
O=C(OCC#CCSc1nnc(-c2ccc(Br)cc2)o1)c1ccco1 | inactive | –
CCCOc1ccccc1NC(=O)c1ccc(N)cc1 | inactive | –
N#Cc1c2c(nc(N)c1-c1ccccc1)CCCCC2 | inactive | –
CC(=O)N=c1sc2nc3ccccc3nc2n1N(C(C)=O)C(C)=O | inactive | –
COc1ccccc1NC(=O)N(Cc1ccc2c(c1)OCO2)Cc1nc2ccccc2c(=O)[nH]1 | inactive | –

Structure (SMILES) | outcome | EC50 [nM]
CCC(=O)n1nc(-c2ccco2)nc1N | inactive | –
Cc1cc2cc(CN(CCN3CCOCC3)C(=O)Nc3ccccc3F)c(=O)[nH]c2cc1C | inactive | –
COC(=O)c1sc2ccccc2c1C(=O)OC | inactive | –
COc1cccc(-c2nn3c(-c4cc(C)[nH]n4)nnc3s2)c1 | inactive | –
N#Cc1nc(-c2ccc(F)cc2)oc1NCc1ccccc1 | inactive | –
c1ccc(C2CC(c3ccccc3)n3ncnc3N2)cc1 (stereo unspecified) | inactive | –
Clc1ccc(-n2nnnc2-c2ccccc2)cc1 | inactive | –
Cc1cc(-c2ccccc2)c(C#N)c(SCC(N)=O)n1 | inactive | –
CC(C)Cc1nc(N2CCN(C(=O)C(C)C)CC2)c(C#N)c2c1CCC2 | inactive | –
COc1ccc(-c2cc(=O)oc3c(C)c(O)c(CN(C)C)cc23)cc1 | inactive | –
Cn1c(Cn2c(=O)sc3ccccc32)nnc1SCC(=O)N1CCOCC1 | inactive | –
C=CCSc1nc2ccccc2c(=O)[nH]1 | inactive | –
Cc1c(C(=O)OCC(C)C)[nH]c2c1C(=O)CC(c1ccco1)C2 (stereo unspecified) | – | 1570
CCC(C)Nc1nc(OC)nc(N(C)C#N)n1 (stereo unspecified) | inactive | –
CCOc1ccccc1NC(=O)CN(C)S(=O)(=O)c1cccc2nsnc12 | inactive | –
COC(=O)c1ccc(C(=O)OC)c(NC(=O)COC(=O)C23CC4CC(CC(O)(C4)C2)C3)c1 | inactive | –
COc1cccc(-c2nnc(SCC(=O)Nc3cc(C)on3)o2)c1 | inactive | –
CCCCCn1c(N)c(C#N)c2nc3ccccc3nc21 | inactive | –
CCOC(=O)Cc1[nH]nc2c1C(c1cccc(OC)c1OC)C(C#N)=C(N)O2 (stereo unspecified) | inactive | –
CSc1nc2oc3c(c2c2nncn12)CC(C)(C)SC3 | inactive | –
c1ccc(Cn2nnc3c(N4CCc5ccccc54)ncnc32)cc1 | inactive | –
c1ccc(-c2nc3ccccc3c3nncn23)cc1 | inactive | –
Cc1noc(C)c1S(=O)(=O)N1CCCC(C(=O)NCc2ccccn2)C1 (stereo unspecified) | inactive | –

Structure (SMILES) | outcome | EC50 [nM]
COc1ncnc2c1N[C@@](C)(O)c1c(F)c(F)c(F)c(F)c1S2 | inactive | –
COc1ccc(-c2noc(COc3ccc4ccccc4c3Br)n2)cc1OC | inactive | –
COc1ccc(C2CC(c3cc(OC)ccc3OC)n3nnnc3N2)cc1 (stereo unspecified) | inactive | –
CCCCn1c(=O)c(C(=O)Nc2cnccn2)c(O)c2ccccc21 | inactive | –
CCOC(=O)CSc1nc2c(sc(=S)n2Cc2ccco2)c(=O)n1-c1ccccc1 | inactive | –
COC(=O)Nc1ccc2c(c1)N(C(=O)CCN1CCOCC1)c1ccccc1S2 | inactive | –
CC(C)Cn1c(=O)c2c(c3ccccc31)OC(C)C(=O)N2 (stereo unspecified) | inactive | –
COc1ccc(-c2coc3cc(O)ccc3c2=O)cc1OC | inactive | –
CN(C)c1oc(-c2ccccc2Cl)nc1C#N | inactive | –
CCc1nc(N2CCCCC2)c2oc3ccccc3c2n1 | inactive | –
CCOC(=O)c1c(-c2ccsc2)csc1N | inactive | –
CCCCn1c(=NC(=O)c2cccnc2)c(C(=O)OCC)cc2c(=O)n3ccccc3nc21 | – | 2020
CCn1ncc(C2=NOC(C(=O)Nc3ccc4c(c3)OCO4)C2)c1C (stereo unspecified) | inactive | –
CC(=O)N1CCC2(CC1)C(C#N)=C(N)Oc1c2sc2nc(C)cc(C)c12 | inactive | –
CCOC(=O)C(O)(CCC(O)(C(=O)OCC)C(=O)OCC)C(=O)OCC | inactive | –
O=c1nc2scc(-c3ccccc3)n2c2ccccc12 | inactive | –
CC(=O)c1cc(C#N)c(SCc2ccncc2)nc1C | inactive | –
NC(=O)c1cc(-c2ccccc2)nc(N2CCCCCC2)n1 | inactive | –
CCn1c2ccccc2c2nnc(SCCCn3c(=O)[nH]c4ccccc43)nc21 | inactive | –
Clc1ccccc1-c1nnc2sc(-c3ccc(Br)o3)nn12 | inactive | –
COC(=O)c1cc(NC(=O)CSc2nc(C)cc(=O)[nH]2)cc(C(=O)OC)c1 | inactive | –
Cc1ccc2c(c1)-c1c(ssc1=S)C(C)(C)N2C(=O)CSc1nncn1C | inactive | –
COc1ccc(Cc2nnc(NC(=O)c3c(-c4ccccc4)noc3C)s2)cc1 | inactive | –

Structure (SMILES) | outcome | EC50 [nM]
COc1ccc(C2CC(=O)Nc3ccccc3S2(=O)=O)cc1OC (stereo unspecified) | inactive | –
Cc1ccc(S(=O)(=O)N2CCN(C(=O)COC(=O)c3cc(C)oc3C)CC2)cc1 | inactive | –
Cc1ccccc1NC(=O)c1nc[nH]c1C(=O)NCc1ccccc1 | inactive | –
CCn1c(=O)c(C(=O)NCc2cccnc2)c(O)c2ccccc21 | inactive | –
Cc1ccc(-n2c(SCC(=O)OC(C)C)nnc2-c2cnccn2)cc1 | inactive | –
CCCn1c(=NC(C)=O)c(C(=O)OCC)cc2c(=O)n3ccccc3nc21 | inactive | –
Cc1ccc(Oc2ccccc2)c(NC=O)c1 | inactive | –
CCn1c(SCC(=O)Nc2cc(C)on2)nc2c(c1=O)SC(C)C2 (stereo unspecified) | inactive | –
CCOC(=O)CN(C(=O)CSc1nnc(-c2ccc(OC)c(OC)c2)o1)c1ccc(F)cc1 | inactive | –
NC(=O)COc1ccc(NC(=O)OCc2ccccc2)cc1 | inactive | –
CSc1nc2c(c(=O)n1-c1ccccc1)SCC2 | inactive | –
O=C(c1ccco1)N1CCN(c2nc(C3CC3)nc3sc4c(c23)CCCC4)CC1 | inactive | –
CCOC(=O)c1c(-c2cccs2)csc1NC(=O)CSc1ncn[nH]1 | inactive | –
COC(=O)c1cc(=O)n(Cc2ccco2)c(=Nc2ccc(F)c(Cl)c2)s1 | inactive | –
COc1ccccc1NC(=O)CC1Nc2ccccc2NC1=O (stereo unspecified) | inactive | –
COc1c(S(=O)(=O)n2nc(C)cc2C)ccc(Cl)c1Cl | inactive | –
COc1ccc(NC(=O)c2ccc(NS(=O)(=O)c3c(C)noc3C)cc2)cc1OC | inactive | –
C=CCc1c(C)nc(SC)nc1Nc1ccc(C(=O)O)cc1 | inactive | –
CC(C)C1N=C2c3ccccc3N=C(SCC#N)N2C1=O (stereo unspecified) | – | 3140
N#Cc1cc2ccccc2nc1SCC(=O)Nc1ccc(S(=O)(=O)N2CCCC2)cc1 | inactive | –
O=C1C(Cl)=C(NCC2CCCO2)C(=O)N1C1CCCCC1 (stereo unspecified) | inactive | –
CCOC(=O)c1[nH]c2ccccc2c1NC(=O)C(C)(C)C | inactive | –
Cc1sc2nc(C3CC3)nc(NCCNS(C)(=O)=O)c2c1C | inactive | –

Structure (SMILES) | outcome | EC50 [nM]
Cc1nnc(SCCn2c(N3CCCC(C)C3)nc3c2c(=O)[nH]c(=O)n3C)s1 (stereo unspecified) | inactive | –
C=C(C)CSc1nc2c(cc1C#N)CCC2 | inactive | –
Cc1cc(=O)oc2cc(OCC(=O)NCCc3nc4ccccc4[nH]3)ccc12 | inactive | –
COc1ccc(-c2csc3nc(C)n(-n4cccc4)c(=O)c23)cc1OC | inactive | –
Cc1cccc(-c2c3c(=O)n(C)c(=O)n(C)c3cn2-c2ccccc2O)c1 | inactive | –
COCCNC(=O)c1c(NC(=O)c2ccco2)n(Cc2ccccc2)c2nc3ccccc3nc12 | inactive | –
CCOC(=O)NCCc1ccc(OC)cc1 | inactive | –
CS(=O)(=O)c1sc2nc(-c3cccs3)cc(-c3ccccc3)c2c1N | inactive | –
CCC(C)Sc1nc2c(c(=O)n1C)SC(C)C2 (stereo unspecified) | inactive | –
C=CCn1c(SCc2nc3c(c(=O)[nH]c(=O)n3CCCC)n2CCC)nnc1-c1ccccc1 | inactive | –
CCOC(=O)N1CCN(S(=O)(=O)c2ccc3c(c2)CCN3C(=O)C2CCC2)CC1 | inactive | –
O=C(CSc1nc2ccccc2s1)NC(=O)NCc1ccco1 | inactive | –
COC(=O)/C(=C1/Oc2cc3c(cc2S1)OCO3)C(F)(F)F | inactive | –
CCOc1ccccc1C1NC(=O)NC(C)=C1C(=O)OC1CCCCC1 (stereo unspecified) | inactive | –
O=C1CC(c2ccsc2)c2cc3c(cc2N1)OCCO3 (stereo unspecified) | inactive | –
Cn1cccc1C1NC(=O)c2c(sc3c2CCC(C(C)(C)C)C3)N1 (stereo unspecified) | inactive | –
Cc1cc(N2CCN(S(=O)(=O)c3ccc4c(c3)OCCO4)CC2)n2ncnc2n1 | inactive | –
CSc1ccccc1NC(=O)c1onc(C)c1Cl | inactive | –
CCn1nc(C(=O)NC2=NCCS2)c2ccccc2c1=O | inactive | –
